Test results published in PMC4111603 (PLoS ONE, 2014).

Key:
Assay type in all cases: biochemical
Ovine COX-1 = molecular target: T1, Ovine COX-1 (Ovis aries, UniProt P05979); assay: COX-1 oxygenation of arachidonic acid, oxygen electrode; conditions: for COX-1 activity (% of control): 10 µM AA, initial activity 10-30 s, mean ± s.e.m., n = 3; for inhibition at 300 µM: 300 µM compound
T1 construct: purchased Cayman Chemical Co. 60100
T1 sequence (P05979 25-600): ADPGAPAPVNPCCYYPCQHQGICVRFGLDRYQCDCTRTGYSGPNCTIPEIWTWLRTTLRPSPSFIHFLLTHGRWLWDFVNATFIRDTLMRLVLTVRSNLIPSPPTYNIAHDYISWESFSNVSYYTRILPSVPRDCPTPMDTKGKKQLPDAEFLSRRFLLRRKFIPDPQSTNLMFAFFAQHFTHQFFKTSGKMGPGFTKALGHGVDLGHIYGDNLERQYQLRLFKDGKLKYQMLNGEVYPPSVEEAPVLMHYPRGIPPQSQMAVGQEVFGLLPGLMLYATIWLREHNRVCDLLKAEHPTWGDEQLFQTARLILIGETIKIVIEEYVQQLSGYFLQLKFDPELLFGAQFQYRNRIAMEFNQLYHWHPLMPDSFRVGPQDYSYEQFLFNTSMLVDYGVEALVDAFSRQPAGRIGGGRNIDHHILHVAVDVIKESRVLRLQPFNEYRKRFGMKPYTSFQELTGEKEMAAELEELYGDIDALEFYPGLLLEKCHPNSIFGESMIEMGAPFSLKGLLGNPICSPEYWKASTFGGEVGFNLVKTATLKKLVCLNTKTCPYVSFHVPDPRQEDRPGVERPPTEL
Method: (§1) The assay was performed according to Meade et al. with minor modifications using an oxygen electrode chamber with integral stirring (Oxygraph System, Hansatech Instruments, King’s Lynn, U.K.). The electrode was calibrated to ambient temperature and air pressure. Samples were prepared in 0.1 M Tris-HCl buffer pH 7.4 containing 1 µM haematin, 2 mM phenol, 5 mM EDTA, 10 µM substrate (AA or 2-AG) (final assay volume was 2 ml). After addition of test substance dissolved in DMSO (final assay concentration 1%) a baseline was established for 5 min before initiation of reaction by addition of 200 units COX-1 or COX-2. Change in oxygen consumption was monitored for approximately 5 min.
(§2) FAAH inhibition was calculated using log(inhibitor) vs. response with variable slope (four parameters) algorithm in the GraphPad Prism computer program (GraphPad Software Inc., San Diego, CA. USA). […] The two curves were compared by Akaike’s informative criteria and the best fit was chosen. Initial COX activities were calculated as the change in oxygen tension between 10 and 30 seconds after addition of enzyme.

human recombinant COX-2 [1] = molecular target: T2, human recombinant COX-2 (Homo sapiens, UniProt P35354); assay: COX-2 oxygenation of 2-AG, oxygen electrode; conditions: for COX-2 activity (% of control): substrate 2-AG 10 µM, initial activity 10-30 s, n = 3
T2 construct: purchased Cayman Chemical Co. 60122
T2 sequence (P35354 18-604): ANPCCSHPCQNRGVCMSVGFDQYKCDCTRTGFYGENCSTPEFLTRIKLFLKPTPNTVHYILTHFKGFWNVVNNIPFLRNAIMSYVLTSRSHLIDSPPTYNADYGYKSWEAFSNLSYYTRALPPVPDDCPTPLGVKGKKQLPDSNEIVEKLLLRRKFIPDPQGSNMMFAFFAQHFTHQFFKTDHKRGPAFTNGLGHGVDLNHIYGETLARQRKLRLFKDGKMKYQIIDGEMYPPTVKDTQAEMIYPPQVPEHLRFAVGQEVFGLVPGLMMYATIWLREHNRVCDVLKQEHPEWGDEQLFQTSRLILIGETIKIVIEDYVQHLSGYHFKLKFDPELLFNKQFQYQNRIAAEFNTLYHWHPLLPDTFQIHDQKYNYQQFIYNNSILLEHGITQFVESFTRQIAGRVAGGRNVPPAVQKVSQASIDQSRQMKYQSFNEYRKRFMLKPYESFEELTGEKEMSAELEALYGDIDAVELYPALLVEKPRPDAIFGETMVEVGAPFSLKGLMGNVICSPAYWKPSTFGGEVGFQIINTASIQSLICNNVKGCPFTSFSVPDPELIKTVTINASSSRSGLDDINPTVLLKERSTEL
Method: as §1, §2

human recombinant COX-2 [2] = molecular target: T2, human recombinant COX-2; assay: COX-2 oxygenation of arachidonic acid, oxygen electrode; conditions: for COX-2 activity (% of control): substrate AA 10 µM, initial activity 10-30 s, n = 3
Method: as §1, §2

[3] = read-out: inhibition of COX-1-catalysed oxygenation of arachidonic acid

COX-1 activity (% of control) (Ovine COX-1; 100 µM NSAID)	COX-1 activity (% of control) (Ovine COX-1; 300 µM NSAID)	inhibition at 300 µM (Ovine COX-1; [3]) [%]	COX-1 activity (% of control) (Ovine COX-1; 1000 µM NSAID)	COX-2 activity (% of control) (human recombinant COX-2 [1]; 100 µM NSAID)	COX-2 activity (% of control) (human recombinant COX-2 [1]; 300 µM NSAID)	COX-2 activity (% of control) (human recombinant COX-2 [2]; 100 µM NSAID)	COX-2 activity (% of control) (human recombinant COX-2 [2]; 300 µM NSAID)	inhibition at 100 µM (Ovine COX-1; 100 µM compound, read-out: inhibition of COX-1-catalysed oxygenation of arachidonic acid) [%]	inhibition at 1000 µM (Ovine COX-1; 1000 µM compound, read-out: inhibition of COX-1-catalysed oxygenation of arachidonic acid) [%]	COX-2 activity (% of control) (human recombinant COX-2 [1]; 30 µM NSAID)	inhibition of cyclooxygenation of 2-AG (human recombinant COX-2 [1]; 30 µM compound)	inhibition of cyclooxygenation of 2-AG (human recombinant COX-2 [1]; 100 µM compound)	inhibition of cyclooxygenation of 2-AG (human recombinant COX-2 [1]; 300 µM compound)	inhibition of COX-2-catalysed oxygenation of arachidonic acid (result in words) (human recombinant COX-2 [2])	COX-2 activity (% of control) (human recombinant COX-2 [2]; 30 µM NSAID)	SMILES	inhibition of COX-2-catalysed oxygenation of 2-AG at longer incubation times (human recombinant COX-2 [1]; lower potency than the parent compound, initial inhibition (10-30 s) only modestly affected)
102±17 % of control	91±5 % of control	9	95±3 % of control	125±24 % of control	115±21 % of control	98±17 % of control	83±12 % of control	–	–	–	–	–	–	–	–	CC(C(=O)O)c1ccc(CC(C)(C)O)cc1 (stereo not drawn) [2′-OH-Ibuprofen, 2-[4-(2-hydroxy-2-methylpropyl)phenyl]propionic acid]	–
81±16 % of control	97±10 % of control	3	68±15 % of control	73±14 % of control	91±2 % of control	103±21 % of control	84±10 % of control	–	–	–	–	–	–	–	–	CC(CO)Cc1ccc(C(C)C(=O)O)cc1 (stereo not drawn) [3′-OH-Ibuprofen, 2-[4-(3-hydroxy-2-methylpropyl)phenyl]propionic acid]	retained the ability of ibuprofen to inhibit
97±31 % of control	72±20 % of control	28	6±6 % of control	24±4 % of control	−6±9 % of control	106±16 % of control	106±9 % of control	3	94	39±11 % of control	partially	partially	completely	failed to inhibit	88±16 % of control	CC(C(=O)O)c1ccc(-c2ccc(O)cc2)c(F)c1 (stereo not drawn) [4′-OH-Flurbiprofen]	–
